In patent publication US5235045A, “Non-azo naphthalimide dyes” (priority 1992, dated 1993):
Like-named read-outs stand apart in the source and are kept apart here.

Key:
[1] = test system: Herpes simplex virus type 1; assay: Effect of prior activation of Ed6Br with 420 nm light on HSV-1 (plaque assay); type: cell-based, MacIntyre strain; details: for log reduction at 25 µM / log reduction at 100 µM: Human alphaherpesvirus 1, 24 h, read-out: Log10 Reduction
[2] = test system: DAUDI cells; assay: Photoinduced cell kill of DAUDI cells ([3H]-thymidine incorporation); type: cell-based; details: for CPM ([3H]-thymidine incorporation): 10% FCS medium
Experimental: An additional study using DAUDI cells and lower concentrations of Compound VII was performed according to the same protocol for studying the photochemical kill of H9 cells mediated by Compound VII. Viability was determined by the trypan blue assay above, as well as by [^3 H]-thymidine incorporation. The [^3 H]-thymidine incorporated protocol was as follows:
After irradiation, the cells were diluted to 3×10^5 cells/ml with medium containing twice the normal concentration of gentamycin. The cells were pipetted into a 96-well TC plat (100 μl/well) and incubated at 37° C. in a 5% CO2 incubator for 36 hours. At this time 1 μCi of [^3 ]-thymidine was added and allowed to incorporate for 6 hours. The cells were then harvested on glass fiber filters and placed into scintillation vials to which cocktail was added. The samples were counted on a Beckman model LS 6000IC scintillation counter.

[3] = Bleaching in distearoylphosphatidyl choline vesicles; type: physicochemical; details: irradiated vesicles
Experimental: The dye was incorporated into synthetic vesicles as described above. The vesicles were irradiated with a 150-W Oriel xenon arc lamp at a distance of 4 cm from the lens at a thermostated temperature of 20° C. The change in fluorescence intensity with time was determined above, and the results plotted as a standard first order plot.

[4] = test system: Bovine Herpes Virus Type I; assay: Photoinactivation of Bovine Herpes Virus Type I (CPE, TCID50); type: cell-based, Bovine Herpes Virus Type I (BHV-1); details: light or radiation study, 10J/cm^2; for killing at 0.035 µM / killing at 0.07 µM / killing at 0.14 µM / killing at 0.27 µM / killing at 0.54 µM / killing at 1.09 µM: read-out: % Inactivation; for killing at 0.07 µM / log reduction at 0.07 µM: 0.070 μM
Experimental: Bovine Herpes Virus Type I (BHV-1). Cell-free and serum-free virus (BHV-1 reference strain from Dr. M. L. Vickers, ADL SDSU) was purified by potassium tartrate gradient ultracentrifugation. Virus was then resuspended in minimal buffer. Compound VII was diluted with ethanol to a concentration of 5 mg/ml. The dye stock solution was prepared by sequentially adding the ethanolic dye solution to fetal bovine serum (FBS), and diluting the dye-FBS mixture with MEM to give 10% FBS in MEM, so that the final concentration of the compound was 500 ng/ml. All dilutions of the dye in the medium were made from this stock solution. Dye/virus mixtures were all prepared as 1:1 mixtures of virus and dye stock solution. The virus was incubated for 30 min at 37° C. prior to irradiation, and then irradiated using a xenon arc lamp to give 10J/cm^2 total irradiative flux. Photomodified virus was then incubated with the appropriate cells (fetal bovine lung - FBL - or MDBK) in 10% FBS in MEM for 1 hour. Then unbound virus was taken off, the cells were washed with Ca/Mg-free PBS, and the cells were then placed in 10% FBS-MEM. The cells were incubated for 24 hours at 37° C. in a 5% CO2 incubator. After 24 and 48 hours, the cells were assayed for cytophathic effect (CPE), and the results expressed in terms of using TCID50 units. The viral inactivation data are expressed in terms of % inactivation in Table 12.

[5] = test system: Herpes simplex virus type 1; assay: Effect of Ed6Br and light on aqueous suspensions of HSV-1 (plaque assay); type: cell-based, MacIntyre strain
[6] = test system: H9 cells; assay: Uptake into living H9 cells; type: cell-based, human; details: for rate constant for uptake: 10% fetal calf serum
Experimental: For measurement, the pellet was diluted in 3 ml PBS+0.1% CTAB immediately prior to fluorescence measurement. Fluorescence measurements were made using an excitation wavelength of 451 nm, and an emission wavelength of 526 nm.
The protocol used is as above in (1), modified as below for those experiments in the presence of colchicine: Colchicine (1 mg/ml) was added to H9 cells at 5×10^.ident. cells/ml, and incubated for 1 hour. The cells were centrifuged, fresh medium was added, and 1b (25 μM) was added. Samples were taken at 0, 2, and 4 hours.

CCCCCCNc1c(Br)cc2c3c(cccc13)C(=O)N(CCCCCC)C2=O [Compound VII, 3-bromo-4-(hexyl)amino-N-hexyl-1,8-naphthalimide]
PFU/ml ([1]; 25 μM, prior activation +): 8.4 × 10^3 PFU/ml | PFU/ml ([1]; 25 μM, prior activation -): 4.5 × 10^4 PFU/ml | PFU/ml ([1]; 100 μM, prior activation +): 3.0 × 10^1 PFU/ml | PFU/ml ([1]; 100 μM, prior activation -): 9.0 × 10^3 PFU/ml | log reduction at 25 µM ([1]; 25 μM, prior activation +): 1.51 | log reduction at 25 µM ([1]; 25 μM, prior activation -): 0.78 | log reduction at 100 µM ([1]; 100 μM, prior activation +): 3.95 | log reduction at 100 µM ([1]; 100 μM, prior activation -): 1.48 | kill of HSV-1 ([1]; as low as 100 mM, activated prior to addition to viral suspension): > 99.99% | CPM ([3H]-thymidine incorporation) ([2]; 1 μM, hν): 1.2 ± 0.4 × 10^2 CPM | CPM ([3H]-thymidine incorporation) ([2]; 1 μM, no hν): 5.1 ± 0.3 × 10^4 CPM | CPM ([3H]-thymidine incorporation) ([2]; 5 μM, hν): 1.1 ± 0.3 × 10^2 CPM | CPM ([3H]-thymidine incorporation) ([2]; 5 μM, no hν): 4.8 ± 0.3 × 10^4 CPM | CPM ([3H]-thymidine incorporation) ([2]; 10 μM, hν): 1.0 ± 0.4 × 10^2 CPM | CPM ([3H]-thymidine incorporation) ([2]; 10 μM, no hν): 4.5 ± 0.2 × 10^4 CPM | photochemical cell inactivation ([2]; concentrations as low as 1 μM, 10J/cm^2): highly efficient photochemical cell inactivator | bleaching [3]: do not bleach | photodegradation of the dye [3]: only very slow photodegradation | killing at 0.035 µM ([4]; 24 h): 99.4% | log reduction at 0.035 µM ([4]; 24 h, read-out: log10 red.): 3.2 | killing at 0.035 µM ([4]; 48 h): 89.9% | log reduction at 0.035 µM ([4]; 48 h, read-out: log10 red.): 0.95 | killing at 0.07 µM ([4]; 24 h): 99.8% | log reduction at 0.07 µM ([4]; 24 h, read-out: log10 red.): 3.7 | killing at 0.07 µM ([4]; 48 h): 98.7% | log reduction at 0.07 µM ([4]; 48 h, read-out: log10 red.): 2 | killing at 0.14 µM ([4]; 24 h): > 100% | log reduction at 0.14 µM ([4]; 24 h, read-out: log10 red.): > 3.7 | killing at 0.14 µM ([4]; 48 h): 99.4% | log reduction at 0.14 µM ([4]; 48 h, read-out: log10 red.): 3.2 | killing at 0.27 µM ([4]; 24 h): > 100% | log reduction at 0.27 µM ([4]; 24 h, read-out: log10 red.): > 3.7 | killing at 0.27 µM ([4]; 48 h): 99.4% | log reduction at 0.27 µM ([4]; 48 h, read-out: log10 red.): 3.2 | killing at 0.54 µM ([4]; 0.54 μM, 24 h): > 100% | killing at 0.54 µM ([4]; 0.54 μM, 48 h): > 100% | log reduction at 0.54 µM ([4]; 0.54 μM, 48 h, read-out: log10 red.): > 3.7 | log reduction at 1.09 µM ([4]; 24 h): > 3.7 | killing at 1.09 µM ([4]; 24 h): > 100% | log reduction at 1.09 µM ([4]; 48 h): > 3.7 | killing at 1.09 µM ([4]; 48 h): > 100% | PFU/ml ([5]; 1.25 μM, irradiated 20 J/cm2, 420 nm): 0 PFU/ml | PFU/ml ([5]; 2.5 μM, irradiated 20 J/cm2, 420 nm): 0 PFU/ml | PFU/ml ([5]; 5 μM, irradiated 20 J/cm2, 420 nm): 0 PFU/ml | PFU/ml ([5]; 10 μM, irradiated 20 J/cm2, 420 nm): 0 PFU/ml | PFU/ml ([5]; .078 μM, irradiated 20 J/cm2, 420 nm): 3.8 × 10^1 PFU/ml | PFU/ml ([5]; .156 μM, irradiated 20 J/cm2, 420 nm): 1.8 × 10^1 PFU/ml | PFU/ml ([5]; .312 μM, irradiated 20 J/cm2, 420 nm): 7.5 × 10^0 PFU/ml | PFU/ml ([5]; .625 μM, irradiated 20 J/cm2, 420 nm): 0 PFU/ml | log reduction at 1.25 µM ([5]; Human alphaherpesvirus 1, light or radiation study, 1.25 μM, irradiated 20 J/cm2, 420 nm, read-out: Log10 Reduction): 5.8 | log reduction at 2.5 µM ([5]; Human alphaherpesvirus 1, light or radiation study, 2.5 μM, irradiated 20 J/cm2, 420 nm, read-out: Log10 Reduction): 5.8 | log reduction at 5 µM ([5]; Human alphaherpesvirus 1, light or radiation study, 5 μM, irradiated 20 J/cm2, 420 nm, read-out: Log10 Reduction): 5.8 | log reduction at 10 µM ([5]; Human alphaherpesvirus 1, light or radiation study, 10 μM, irradiated 20 J/cm2, 420 nm, read-out: Log10 Reduction): 5.8 | log reduction at 0.078 µM ([5]; Human alphaherpesvirus 1, light or radiation study, .078 μM, irradiated 20 J/cm2, 420 nm, read-out: Log10 Reduction): 4.22 | log reduction at 0.156 µM ([5]; Human alphaherpesvirus 1, light or radiation study, .156 μM, irradiated 20 J/cm2, 420 nm, read-out: Log10 Reduction): 4.54 | log reduction at 0.312 µM ([5]; Human alphaherpesvirus 1, light or radiation study, .312 μM, irradiated 20 J/cm2, 420 nm, read-out: Log10 Reduction): 4.92 | log reduction at 0.625 µM ([5]; Human alphaherpesvirus 1, light or radiation study, .625 μM, irradiated 20 J/cm2, 420 nm, read-out: Log10 Reduction): 5.8 | kill of HSV-1 ([5]; as low as 0.078 mM, 420 nm, 20 J/cm2, 2.5% or less of serum proteins): > 99.99%

CCCCCCNc1ccc2c3c(cccc13)C(=O)N(CCCCCC)C2=O [Compound 1b, 4-(hexyl)amino-N-hexyl-1,8-naphthalimide]
rate constant for uptake ([6]; 1 μM, 4° C.): 3.5 ± 0.6 × 10^-4 s^-1 | rate constant for uptake ([6]; 1 μM, 37° C.): 3.6 ± 1.7 × 10^-4 s^-1 | rate constant for uptake ([6]; 5 μM, 4° C.): 2.7 ± 1.0 × 10^-4 s^-1 | rate constant for uptake ([6]; 5 μM, 37° C.): 3.3 ± 0.7 × 10^-4 s^-1 | rate constant for uptake ([6]; 25 μM, 4° C.): 2.3 ± 0.9 × 10^-4 s^-1 | rate constant for uptake ([6]; 25 μM, 37° C.): 2.5 ± 0.3 × 10^-4 s^-1 | total uptake in presence of colchicine ([6]; 25 μM, colchicine pre-incubated 1 hour): decreased | slope of log/log plot of fluorescence vs. time, presence and absence of colchicine ([6]; after 2 hours, 25 μM): essentially the same slope
